Values joined by “and” are separate entries in the source; they are usually repeats but may differ in a detail not shown here. Identical values can stand only once.
What was measured:
Format in all cases: cell-based
320 non-olfactory GPCRs [1] = biological target: T1, 320 non-olfactory GPCRs (Homo sapiens, UniProt P47901)
T1 construct: expressed in transfected cells; host or cells: HTLA cells

320 non-olfactory GPCRs [2] = biological target: 320 non-olfactory GPCRs (Homo sapiens, UniProt P21918)
Chain of 320 non-olfactory GPCRs (Homo sapiens, UniProt P21918) (P21918 whole entry): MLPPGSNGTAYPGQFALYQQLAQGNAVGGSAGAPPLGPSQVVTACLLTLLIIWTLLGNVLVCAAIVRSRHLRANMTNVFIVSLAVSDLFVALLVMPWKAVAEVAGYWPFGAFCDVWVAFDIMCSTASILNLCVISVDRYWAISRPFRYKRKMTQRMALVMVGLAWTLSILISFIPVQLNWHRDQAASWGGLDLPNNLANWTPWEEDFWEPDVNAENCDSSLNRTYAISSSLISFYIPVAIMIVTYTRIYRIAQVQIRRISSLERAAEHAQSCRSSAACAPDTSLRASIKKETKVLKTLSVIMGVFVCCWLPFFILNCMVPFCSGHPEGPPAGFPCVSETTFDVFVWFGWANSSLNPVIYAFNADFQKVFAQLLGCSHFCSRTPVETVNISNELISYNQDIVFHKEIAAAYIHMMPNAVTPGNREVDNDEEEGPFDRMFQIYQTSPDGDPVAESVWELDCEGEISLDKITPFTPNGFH

320 non-olfactory GPCRs [3] = biological target: T2, 320 non-olfactory GPCRs (Homo sapiens, UniProt P25089)
T2 construct: expressed in transfected cells; host or cells: HTLA cells
T2 sequence (P25089 whole entry): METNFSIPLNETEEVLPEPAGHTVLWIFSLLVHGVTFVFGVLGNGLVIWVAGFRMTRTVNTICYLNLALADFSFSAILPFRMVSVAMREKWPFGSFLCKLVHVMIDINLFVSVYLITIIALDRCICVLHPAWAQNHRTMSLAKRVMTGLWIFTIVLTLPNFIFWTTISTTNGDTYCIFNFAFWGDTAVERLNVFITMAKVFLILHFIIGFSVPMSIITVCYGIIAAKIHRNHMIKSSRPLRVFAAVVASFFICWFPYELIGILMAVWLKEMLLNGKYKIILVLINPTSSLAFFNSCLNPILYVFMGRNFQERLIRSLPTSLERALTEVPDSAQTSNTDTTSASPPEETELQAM

320 non-olfactory GPCRs [4] = biological target: T3, 320 non-olfactory GPCRs (Homo sapiens, UniProt Q02643)
T3 construct: expressed in transfected cells; host or cells: HTLA cells
T3 sequence (Q02643 23-423): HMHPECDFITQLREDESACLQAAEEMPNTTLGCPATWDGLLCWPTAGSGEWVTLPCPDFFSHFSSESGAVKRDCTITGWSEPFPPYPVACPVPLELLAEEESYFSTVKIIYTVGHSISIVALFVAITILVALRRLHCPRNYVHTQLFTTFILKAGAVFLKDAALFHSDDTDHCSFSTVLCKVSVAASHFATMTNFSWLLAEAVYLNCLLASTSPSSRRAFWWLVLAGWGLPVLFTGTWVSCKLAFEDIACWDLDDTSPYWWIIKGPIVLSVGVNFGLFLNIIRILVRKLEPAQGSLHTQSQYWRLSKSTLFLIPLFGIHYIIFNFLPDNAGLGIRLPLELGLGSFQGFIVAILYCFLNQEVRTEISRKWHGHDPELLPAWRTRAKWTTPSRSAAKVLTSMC
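Note: compound tested at 1 µM final concentration.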

T1 sequence (P47901 whole entry): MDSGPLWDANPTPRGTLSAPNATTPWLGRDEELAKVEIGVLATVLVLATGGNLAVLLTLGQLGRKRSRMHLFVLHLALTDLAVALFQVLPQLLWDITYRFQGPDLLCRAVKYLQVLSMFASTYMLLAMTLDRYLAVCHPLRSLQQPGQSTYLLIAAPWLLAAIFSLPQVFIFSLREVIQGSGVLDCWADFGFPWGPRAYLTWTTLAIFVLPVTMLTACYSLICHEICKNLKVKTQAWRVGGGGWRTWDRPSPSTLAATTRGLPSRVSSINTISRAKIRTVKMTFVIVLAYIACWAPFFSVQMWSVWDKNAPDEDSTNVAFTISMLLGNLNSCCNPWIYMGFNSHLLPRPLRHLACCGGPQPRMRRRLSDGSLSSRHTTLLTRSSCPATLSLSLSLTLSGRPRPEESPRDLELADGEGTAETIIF

For `CCOc1cccc2cc(C(C)NCC3(O)CCCCC3)oc12` (stereo not shown) [O4LE6], the “Fold of Basal” value (320 non-olfactory GPCRs [1]) was 1.0215 and 1.01 and 1.094 and 0.8472, the “Fold of Basal” value (320 non-olfactory GPCRs [2]) was 1.173 and 0.6004 and 0.7155 and 0.7884 and the “Fold of Basal” value (320 non-olfactory GPCRs [3]) was 1.168 and 1.052 and 1.054 and 1.032. The “Fold of Basal” value (320 non-olfactory GPCRs [4]) was 1.559 and 1.547 and 1.735 and 1.472.
